# Measurements from ChEMBL document CHEMBL3046517, “Synthesis and antimicrobial study of fluoroquinolone-based 4-thiazolidinones” (2010).
# Calls of active or inactive are those of the source. No cut-off for these calls is given here.
# Assays:
# Assay type in all cases: functional
# [1] = system: Pseudomonas aeruginosa; assay: Antibacterial activity against Pseudomonas aeruginosa by broth dilution method
# [2] = system: Staphylococcus aureus; assay: Antibacterial activity against Staphylococcus aureus by broth dilution method
# [3] = system: Aspergillus niger; assay: Antifungal activity against Aspergillus niger by broth dilution method
# [4] = system: Escherichia coli; assay: Antibacterial activity against Escherichia coli by broth dilution method
# [5] = system: Streptococcus pyogenes; assay: Antibacterial activity against Streptococcus pyogenes by broth dilution method
# [6] = system: Candida albicans; assay: Antifungal activity against Candida albicans by broth dilution method
# [7] = system: Aspergillus clavatus; assay: Antifungal activity against Aspergillus clavatus by broth dilution method
Structure (SMILES),MIC [1] [µg/mL],MIC [2] [µg/mL],MIC [3] [µg/mL],MIC [4] [µg/mL],MIC [5] [µg/mL],MIC [6] [µg/mL],MIC [7] [µg/mL],Activity [1],Activity [2],Activity [4],Activity [5],Activity [6]
COc1ccc(N2CCN(c3cc4c(cc3F)c(=O)c(C(=O)NN3C(=O)CSC3c3cccc([N+](=O)[O-])c3)cn4C3CC3)CC2)cc1 (configuration not stated),200,500,1000,500,1000,1000,> 1000,–,–,–,–,–
COc1ccc(N2CCN(c3cc4c(cc3F)c(=O)c(C(=O)NN3C(=O)CSC3c3ccc(F)cc3)cn4C3CC3)CC2)cc1 (configuration not stated),500,1000,1000,1000,1000,1000,1000,–,–,–,–,–
COc1ccc(N2CCN(c3cc4c(cc3F)c(=O)c(C(=O)NN3C(=O)CSC3c3ccc(O)cc3)cn4C3CC3)CC2)cc1 (configuration not stated),500,500,1000,500,500,1000,> 1000,–,–,–,–,–
COc1ccc(N2CCN(c3cc4c(cc3F)c(=O)c(C(=O)NN3C(=O)CSC3c3ccccc3)cn4C3CC3)CC2)cc1 (configuration not stated),200,500,500,1000,1000,1000,500,–,–,–,–,–
O=C(Cl)c1cn(C2CC2)c2cc(Cl)c(F)cc2c1=O,–,–,–,–,–,–,–,Active,Active,Active,Active,Active
COc1ccc(N2CCN(c3cc4c(cc3F)c(=O)c(C(=O)N/N=C\c3ccccc3[N+](=O)[O-])cn4C3CC3)CC2)cc1,100,150,1000,50,150,1000,1000,–,–,–,–,–
O=C(O)c1cn(C2CC2)c2cc(Cl)c(F)cc2c1=O,100,100,1000,100,100,500,1000,–,–,–,–,–
O=C(N[C@H](CO)[C@H](O)c1ccc([N+](=O)[O-])cc1)C(Cl)Cl [CHLORAMPHENICOL],50,50,–,50,50,–,–,–,–,–,–,–
CCn1cc(C(=O)O)c(=O)c2cc(F)c(N3CCNCC3)cc21 [NORFLOXACIN],10,10,–,10,10,–,–,–,–,–,–,–
COc1ccc(N2CCN(c3cc4c(cc3F)c(=O)c(C(=O)N/N=C\c3ccc(O)c(OC)c3)cn4C3CC3)CC2)cc1,200,500,1000,150,500,1000,1000,–,–,–,–,–
COc1ccc(/C=N\NC(=O)c2cn(C3CC3)c3cc(N4CCN(c5ccc(OC)cc5)CC4)c(F)cc3c2=O)cc1,200,500,> 1000,100,100,500,> 1000,–,–,–,–,–

# Further lines, with some results ahead:
MIC [1] [µg/mL],MIC [2] [µg/mL],MIC [3] [µg/mL],MIC [4] [µg/mL],MIC [5] [µg/mL],MIC [6] [µg/mL],MIC [7] [µg/mL],Structure (SMILES),Activity [1],Activity [2],Activity [4],Activity [5],Activity [6]
500,500,500,250,500,500,500,COc1ccc(N2CCN(c3cc4c(cc3F)c(=O)c(C(=O)N/N=C\c3ccc(F)cc3)cn4C3CC3)CC2)cc1,–,–,–,–,–
500,500,1000,500,500,1000,1000,O=C(N/N=C\c1ccc(F)cc1)c1cn(C2CC2)c2cc(Cl)c(F)cc2c1=O,–,–,–,–,–
1000,500,1000,500,1000,500,1000,O=C(N/N=C\c1ccccc1)c1cn(C2CC2)c2cc(Cl)c(F)cc2c1=O,–,–,–,–,–
1000,1000,500,1000,1000,1000,500,O=C(N/N=C\c1ccc(Cl)cc1)c1cn(C2CC2)c2cc(Cl)c(F)cc2c1=O,–,–,–,–,–
1000,1000,1000,1000,500,1000,1000,COc1ccc(N2CCN(c3cc4c(cc3F)c(=O)c(C(=O)N/N=C\c3ccc(Cl)cc3)cn4C3CC3)CC2)cc1,–,–,–,–,–
100,200,500,50,100,1000,500,O=C(N/N=C\c1ccccc1Cl)c1cn(C2CC2)c2cc(Cl)c(F)cc2c1=O,–,–,–,–,–
200,200,500,100,500,100,1000,COc1cc(/C=N\NC(=O)c2cn(C3CC3)c3cc(Cl)c(F)cc3c2=O)ccc1O,–,–,–,–,–
500,500,> 1000,200,1000,500,> 1000,COc1ccc(/C=N\NC(=O)c2cn(C3CC3)c3cc(Cl)c(F)cc3c2=O)cc1,–,–,–,–,–
200,500,1000,500,1000,1000,1000,COc1ccc(N2CCN(c3cc4c(cc3F)c(=O)c(C(=O)N/N=C\c3ccc(O)cc3)cn4C3CC3)CC2)cc1,–,–,–,–,–
